Experimental data taken from patent US8227240B2, “Systems for screening pharmaceutical chemicals” (The Washington University, priority 2001, dated 2012).

Legend:
[1] = system: bio-artificial tissues including chicken embryo fibroblasts; experiment: Tissue indentation device: stiffness and active cell force after CD (Example 16); type: cell-based
Method: (§1) Bio-artificial tissues were generated by mixing cells and neutralized collagen, as described elsewhere (Wakatsuki et al., 2000, Biophys. J. 79:2353-2368). Briefly, cells were mixed with neutralized rat-tail collagen (Millipore Billerica, Mass.) and media containing 10% Fetal Bovine Serum (FBS). 200-250[…]1 of this solution is poured into wells as described below. The tissues are cultured in Dulbecco's modified Eagle's medium (DMEM) supplemented with 10% FBS and antibiotics (penicillin and streptomycin) in an incubator for two or three days. The bio-artificial tissue membrane was stretched using a mechanical testing device is (as detailed below). During the mechanical measurements, culture medium was switched to a HEPES-buffered DMEM, pH 7.4, and maintained at 37° C.
Cells used in this study included: (1) rat embryo fibroblasts (REF52 cell line) maintained in DMEM supplemented with 10% FBS split once a week (kind gift from Dr. Wysolmerski, Department of Neurobiology and Anatomy, West Virginia University School of Medicine), (2) chicken embryo fibroblasts (CEFs) isolated from 10 day old chicken embryos using a previously described protocol (Wakatsuki et al., 2000, Biophys. J. 79(5):2353-2368) maintained in DMEM supplemented with 3% FBS (passage 2 to 5), and (3) smooth muscle cells (SMC) isolated from adult rat aorta using a previously described protocol (Griendling et al., 1991, J. Biol. Chem. 266(23):15498-15504) cultured in DMEM supplemented with 10% FBS and 1% […] (passage 10-12).
A chamber to hold 8 bio-artificial tissues was machined from a polycarbonate bar (25×60×10 mm) using a tabletop CNC mill (Sherline Products Inc., Vista, Calif.). The 8 square wells of 8×8 mm contained 2 horizontal stainless-steel (medical grade) bars (1 mm diameter) which centers were located 2 mm above bottom and 2 mm beside each wall and were 4 mm apart (FIG. 29A). A microscope cover-slip (No. 1 thickness, Fisher brand) sealed the bottom of wells using silicon glue (Dow chemicals) to facilitate microscopic imaging of cells and bio-artificial tissues. A pre-polymerized solution of bio-artificial tissues was poured into the wells until the horizontal bars became immersed to half of its depth. During tissue culture, the solution gelled and entrapped cells that remodeled and compacted the gel (Tranquillo, 1999, Biochem. Soc. Symp. 65:27-42) by cell traction force. By the next day, the bio-artificial tissues detached from the bottom and side wall to form a membrane spanning between the two bars. The bio-artificial tissues stiffened to form a thin layer of tissue overlaying the bars and generated active tension within the bio-artificial tissues. The chambers were sterilized by UV before usage and kept in a 100 mm sterile Petri dish to avoid any contamination.
The mechanical testing device is depicted in FIG. 29A. A horizontal linear actuator (FIG. 29A-a, ER32-SRN300A, Parker, Wadsworth, Ohio) automatically places the center of each well at right angles below a force-probe (FIG. 29A-c). The bottom of L-shaped probe indents and bends the bio-artificial tissues at the middle (FIG. 29D). The other end of the probe is connected to an isometric force transducer (FIG. 29A-b, model 52-9545, Harvard Apparatus, South Natick, Mass.) and moved by a vertical linear actuator (FIG. 29A-a, ER32-SRN100A, Parker, Wadsworth, Ohio). During the tests, the temperature of bio-artificial tissues in the wells was maintained at 37° C. using a water jacketed warm plate (FIG. 29A-e) connected to a circulating water bath (HAAKE C10-P5, Thermo Fisher Scientific, Inc. Waltham, Mass.). The linear actuators were controlled simultaneously by a personal computer that also recorded the signal generated by the force transducer. The bio-artificial tissues can be quickly placed in a holder at its designated position for mechanical measurements. A time dependent function to lengthen and shorten bio-artificial tissues was predetermined using the computer software of the device. […]

[2] = system: bio-artificial tissues (F-actin network); experiment: Tissue indentation device: force-time and longitudinal force-strain curves (Example 15); type: cell-based
Method: as §1
A chamber to hold 8 bio-artificial tissues was machined from a polycarbonate bar (25×60×10 mm) using a tabletop CNC mill (Sherline Products Inc., Vista, Calif.). The 8 square wells of 8×8 mm contained 2 horizontal stainless-steel (medical grade) bars (1 mm diameter) which centers were located 2 mm above bottom and 2 mm beside each wall and were 4 mm apart (FIG. 29A). A microscope cover-slip (No. 1 thickness, Fisher brand) sealed the bottom of wells using silicon glue (Dow chemicals) to facilitate microscopic imaging of cells and bio-artificial tissues. […]
The mechanical testing device is depicted in FIG. 29A. […] The linear actuators were controlled simultaneously by a personal computer that also recorded the signal generated by the force transducer. […]
While the force-probe indents the bio-artificial tissues vertically at a constant rate, ν (0.5 mm/sec), an isometric force transducer connected to the force probe recorded a resistance force, F(t). A time dependent change in bio-artificial tissues-membrane force in the longitudinal direction, T(t), was calculated from F(t) by a trigonometric relationship (FIG. 28). This rate of indentation was determined to achieve a minimum noise-level by the current device arrangement. […]

C=C1[C@@H](C)[C@H]2[C@H](Cc3ccccc3)NC(=O)[C@]23[C@H](OC(C)=O)/C=C/[C@@](C)(O)C(=O)[C@@H](C)C/C=C/[C@H]3[C@@H]1O [CD, cytochalasin D]
pre-force (active cell force, CD treatment over control) ([1]; 200 pM to 2 μM CD, two hours post-treatment): concentration-dependent reduction | EACD/EACT (ratio of post- over pre- CD treated stiffness) ([1]; [CD] 0.2 nM): 0.932 ± 0.013 | zCD-zCT (difference in sample surface height between post- and pre- CD treated samples) ([1]; [CD] 0.2 nM): −8.925 ± 9.257 μm | EACD/EACT (ratio of post- over pre- CD treated stiffness) ([1]; [CD] 0.9 nM): 0.938 ± 0.016 | zCD-zCT (difference in sample surface height between post- and pre- CD treated samples) ([1]; [CD] 0.9 nM): −21.761 ± 8.982 μm | EACD/EACT (ratio of post- over pre- CD treated stiffness) ([1]; [CD] 4 nM): 0.986 ± 0.015 | zCD-zCT (difference in sample surface height between post- and pre- CD treated samples) ([1]; [CD] 4 nM): −23.707 ± 13.222 μm | EACD/EACT (ratio of post- over pre- CD treated stiffness) ([1]; [CD] 20 nM): 0.979 ± 0.013 | zCD-zCT (difference in sample surface height between post- and pre- CD treated samples) ([1]; [CD] 20 nM): 4.550 ± 7.653 μm | EACD/EACT (ratio of post- over pre- CD treated stiffness) ([1]; [CD] 90 nM): 0.970 ± 0.016 | zCD-zCT (difference in sample surface height between post- and pre- CD treated samples) ([1]; [CD] 90 nM): −22.054 ± 12.989 μm | EACD/EACT (ratio of post- over pre- CD treated stiffness) ([1]; [CD] 400 nM): 0.964 ± 0.021 | zCD-zCT (difference in sample surface height between post- and pre- CD treated samples) ([1]; [CD] 400 nM): −17.607 ± 6.533 μm | EACD/EACT (ratio of post- over pre- CD treated stiffness) ([1]; [CD] 2000 nM): 1.077 ± 0.050 | zCD-zCT (difference in sample surface height between post- and pre- CD treated samples) ([1]; [CD] 2000 nM): −35.318 ± 15.189 μm | EA (mechanical properties of extracellular matrix) ([1]; after the CD treatment): did not change at all | pre-force σ0A (minimum force) compared to untreated control ([2]; 90 nM CD): reduced levels | resistance force F(t) while stretching the membrane ([2]; 90 nM and 2 μM CD): less resistance force | pre-force σ0A (minimum force) compared to untreated control ([2]; 2 μM CD): reduced levels
